The NIST ThermoML archive (doi:10.1016/j.jct.2009.03.009)

Columns and labels:
[1] = xn = mol fraction of the nth substance listed; details: 313.15 K, 101 kPa, Liquid; for speed of sound: Sing-around technique in a fixed-path interferometer; for mass density: Vibrating tube method
[2] = refractive index (Na D-line) (dimensionless); xn = mol fraction of the nth substance listed; details: 313.15 K, 101 kPa, Liquid, Standard Abbe refractometry

c1ccccc1 [benzene] + CCCCCC
Details | mass density, [1] [kg/m3] | refractive index, [2] | speed of sound, [1] [m/s]
x2 = 0 | 857.4 | 1.48752 | 1230
x2 = 0.0378 | 845.3 | 1.48075 | 1214.8
x2 = 0.1009 | 825.8 | 1.46941 | 1191.1
x2 = 0.1986 | 797.9 | 1.45313 | 1158.5
x2 = 0.2979 | 772.2 | 1.43818 | 1129.8
x2 = 0.402 | 747.7 | 1.42416 | 1104.3
x2 = 0.6024 | 706.3 | 1.40043 | 1063.9
x2 = 0.7014 | 688.2 | 1.39011 | 1047.7
x2 = 0.801 | 671.4 | 1.38019 | 1033.2
x2 = 0.9083 | 654.9 | 1.37148 | 1020.2
x2 = 0.9464 | 649.2 | 1.36837 | 1015.9

c1ccccc1 [benzene] + CCCCCCC
Details | mass density, [1] [kg/m3] | refractive index, [2] | speed of sound, [1] [m/s]
x2 = 0 | 857.4 | 1.48752 | 1230
x2 = 0.0511 | 840.8 | 1.47784 | 1210.9
x2 = 0.1025 | 825.2 | 1.46808 | 1193.3
x2 = 0.1998 | 798.6 | 1.45273 | 1165.5
x2 = 0.2987 | 775 | 1.43808 | 1142.8
x2 = 0.3972 | 754.3 | 1.42586 | 1124.4
x2 = 0.5013 | 734.9 | 1.4148 | 1108.9
x2 = 0.5998 | 718.5 | 1.40552 | 1096.8
x2 = 0.698 | 703.7 | 1.39777 | 1086.4
x2 = 0.8043 | 689.4 | 1.38985 | 1077.8
x2 = 0.9013 | 677.7 | 1.38322 | 1071.6
x2 = 0.9518 | 671.9 | 1.38025 | 1068.8

c1ccccc1 [benzene] + CCCCCCCC
x2 = 0
Details | mass density [kg/m3] | refractive index | speed of sound [m/s]
[1] | 857.4 | – | 1230
[2] | – | 1.48752 | –

c1ccccc1 [benzene] + CCCCCCCCC
x2 = 0
Details | mass density [kg/m3] | refractive index | speed of sound [m/s]
[1] | 857.4 | – | 1230
[2] | – | 1.48752 | –

CCc1ccccc1 [ethylbenzene] + CCCCCC
Details | mass density, [1] [kg/m3] | refractive index, [2] | speed of sound, [1] [m/s]
x2 = 0 | 849.2 | 1.48426 | 1256.9
x2 = 0.0465 | 839.4 | 1.47929 | 1243.8
x2 = 0.0771 | 832.8 | 1.47548 | 1235
x2 = 0.201 | 806.5 | 1.46016 | 1200.8
x2 = 0.3015 | 785.2 | 1.44756 | 1173.9
x2 = 0.399 | 764.7 | 1.43582 | 1148.5
x2 = 0.5092 | 741.7 | 1.42251 | 1121.1
x2 = 0.601 | 722.6 | 1.41135 | 1098.9
x2 = 0.7012 | 702 | 1.39924 | 1075.7
x2 = 0.7999 | 681.9 | 1.38766 | 1054.1
x2 = 0.8993 | 661.7 | 1.3759 | 1031.8
x2 = 0.9534 | 650.8 | 1.36962 | 1020.3

CCc1ccccc1 [ethylbenzene] + CCCCCCC
Details | mass density, [1] [kg/m3] | refractive index, [2] | speed of sound, [1] [m/s]
x2 = 0 | 849.2 | 1.48426 | 1256.9
x2 = 0.0494 | 838.5 | 1.47846 | 1243.9
x2 = 0.1039 | 826.9 | 1.47131 | 1229.8
x2 = 0.2025 | 806.7 | 1.4594 | 1205.9
x2 = 0.3022 | 786.8 | 1.44788 | 1183.7
x2 = 0.4038 | 767.2 | 1.43628 | 1162.6
x2 = 0.5006 | 749.3 | 1.42574 | 1144.6
x2 = 0.6003 | 731.6 | 1.41536 | 1126.9
x2 = 0.7014 | 714.3 | 1.40513 | 1109.8
x2 = 0.8048 | 697.3 | 1.39516 | 1094.8
x2 = 0.9028 | 681.7 | 1.38607 | 1079.9

CCc1ccccc1 [ethylbenzene] + CCCCCCCC
Details | mass density, [1] [kg/m3] | refractive index, [2] | speed of sound, [1] [m/s]
x2 = 0 | 849.2 | 1.48426 | 1256.9
x2 = 0.0536 | 837.6 | 1.47786 | 1244.1
x2 = 0.1028 | 827.4 | 1.47159 | 1232.9
x2 = 0.2037 | 807.4 | 1.45954 | 1212.1
x2 = 0.3032 | 788.7 | 1.4483 | 1193.8
x2 = 0.4015 | 771.4 | 1.43795 | 1177.7
x2 = 0.5013 | 755 | 1.42817 | 1163.3
x2 = 0.6039 | 739.2 | 1.41883 | 1150.1
x2 = 0.701 | 725.1 | 1.41043 | 1138.8
x2 = 0.7996 | 711.6 | 1.40254 | 1128.3
x2 = 0.9012 | 698.6 | 1.39489 | 1119.3
x2 = 0.9515 | 692.3 | 1.39112 | 1115

CCc1ccccc1 [ethylbenzene] + CCCCCCCCC
x2 = 0
Details | mass density [kg/m3] | refractive index | speed of sound [m/s]
[1] | 849.2 | – | 1256.9
[2] | – | 1.48426 | –

CCCCCCC [heptane] + CCc1ccccc1
x1 = 1
Details | mass density [kg/m3] | refractive index | speed of sound [m/s]
[1] | 666.6 | – | 1066.5
[2] | – | 1.37737 | –

CCCCCCC [heptane] + Cc1ccccc1
x1 = 1
Details | mass density [kg/m3] | refractive index | speed of sound [m/s]
[1] | 666.6 | – | 1066.5
[2] | – | 1.37737 | –

CCCCCCC [heptane] + c1ccccc1
x1 = 1
Details | mass density [kg/m3] | refractive index | speed of sound [m/s]
[1] | 666.6 | – | 1066.5
[2] | – | 1.37737 | –

CCCCCC [hexane] + CCc1ccccc1
x1 = 1
Details | mass density [kg/m3] | refractive index | speed of sound [m/s]
[1] | 641.4 | – | 1010.3
[2] | – | 1.36411 | –

CCCCCC [hexane] + Cc1ccccc1
Details | mass density, [1] [kg/m3] | refractive index, [2] | speed of sound, [1] [m/s]
x1 = 0.1032 | 822.9 | 1.47028 | 1208.5
x1 = 0.198 | 800.5 | 1.4571 | 1180.8
x1 = 0.2997 | 777.5 | 1.44367 | 1153.5
x1 = 0.4027 | 755.1 | 1.43045 | 1127.5
x1 = 0.5005 | 734.6 | 1.41844 | 1104.6
x1 = 0.5998 | 714.7 | 1.40685 | 1083.1
x1 = 0.6987 | 695.5 | 1.3956 | 1063.3
x1 = 0.7984 | 677 | 1.38476 | 1044.5
x1 = 0.9042 | 658.1 | 1.37387 | 1026.3
x1 = 1 | 641.4 | 1.36411 | 1010.3

CCCCCC [hexane] + c1ccccc1
x1 = 1
Details | mass density [kg/m3] | refractive index | speed of sound [m/s]
[1] | 641.4 | – | 1010.3
[2] | – | 1.36411 | –

CCCCCCCCC [nonane] + CCc1ccccc1
Details | mass density, [1] [kg/m3] | refractive index, [2] | speed of sound, [1] [m/s]
x1 = 0.0527 | 837.7 | 1.47759 | 1245.4
x1 = 0.1043 | 827.1 | 1.47111 | 1234.9
x1 = 0.2032 | 808.1 | 1.45968 | 1217.6
x1 = 0.3009 | 791 | 1.44884 | 1203.2
x1 = 0.4018 | 774.9 | 1.43899 | 1190.7
x1 = 0.5009 | 760.3 | 1.43055 | 1180.1
x1 = 0.6003 | 746.9 | 1.42241 | 1171.2
x1 = 0.7012 | 734.4 | 1.41482 | 1163.5
x1 = 0.8044 | 722.4 | 1.40792 | 1156.7
x1 = 0.9026 | 712 | 1.40178 | 1151.1
x1 = 0.9519 | 707 | 1.39883 | 1148.8
x1 = 1 | 702.2 | 1.39609 | 1146.4

CCCCCCCCC [nonane] + Cc1ccccc1
Details | mass density, [1] [kg/m3] | refractive index, [2] | speed of sound, [1] [m/s]
x1 = 0.1045 | 823.2 | 1.4692 | 1217.6
x1 = 0.2019 | 802.9 | 1.45691 | 1200.3
x1 = 0.3002 | 785 | 1.44571 | 1187
x1 = 0.4021 | 768.7 | 1.43571 | 1176
x1 = 0.502 | 754.5 | 1.42674 | 1167.7
x1 = 0.601 | 741.9 | 1.41934 | 1161.1
x1 = 0.696 | 731 | 1.41289 | 1156.2
x1 = 0.8032 | 719.9 | 1.40639 | 1151.8
x1 = 0.9022 | 710.6 | 1.40097 | 1148.9
x1 = 0.9501 | 706.4 | 1.3985 | 1147.7
x1 = 1 | 702.2 | 1.39609 | 1146.4
